Experiment [1] concerns collagen-specific antibodies. The experiment is described as follows: Anti-CII antibody levels in serum of arthritic mice (ELISA). It is filed as in vivo, mouse. To be noted: intragastric, FIG. 4. On the procedure: Normal group, model group, positive medicament (1 mg/kg dexamethasone) group, naphthoquine phosphate (25, 50, 100 mg/kg) groups, hydroxychloroquine sulfate (100 mg/kg) group.
10 mg of Type II Collagen (CII) was swollen in 2.5 ml of 0.1 mol/L glacial acetic acid to prepare a 4 mg/ml CII solution. This solution was fully emulsified with an equal volume of CFA, and injected subcutaneously (50 μl) at the base of the tail of mice. After 21 days, 4 mg/ml CII solution was fully emulsified with an equal volume of IFA. This mixture was injected subcutaneously (50 μL) at the base of the tail of mice to boost the immune response.
50 μl CII solution (final concentration: 50 μg/ml) was added to each well of a 96-well ELISA plate for coating overnight. The plate was washed 4 times with 200 μl washing solution (1L PBS+500 μl Tween 20) per well. 100 μl 1% BSA was added to each well to block for 1 hour. The plate was then washed 4 times with 200 μl washing solution per well. 50 μl diluted serum samples from each group of mice were added to each well and incubated for 2 hours. The plate was washed 4 times with 200 μl washing solution per well. Horseradish Peroxidase (HRP)-conjugated IgG secondary antibody was added and incubated for 1 hour. […] Absorbance values at 450 nm/570 nm were read by a microplate reader (Spectra Max 190, Molecular Devices).
For orientation: In an ELISA, binding on a coated surface is turned into a signal by an enzyme label.

The test system of experiment [2] is purified splenic B cells of arthritic mice. Nature of the experiment: TLRs-L-induced activation of purified splenic B cells from treated arthritic mice. It is filed as in vivo, mouse. To be noted: intragastric 50, 100 mg/kg, FIG. 6. On the procedure: Normal group, model group, positive medicament (1 mg/kg methotrexate) group, naphthoquine phosphate (50, 100 mg/kg) group, hydroxychloroquine sulfate (100 mg/kg) group.
Same as those described in Example 5.
At the end of the experiment, spleens of mice in each group were collected, and splenic B cells were purified as described in Example 4. Different TLRs-L were used for stimulation. ^3H-TDR incorporation method was used to detect proliferation, ELISA method was used to detect the levels of IL-6 and antibody secretion, and flow cytometry was used to detect the expressions of CD80, CD86, and CD69.
Suspensions of purified mouse B cells from each group were inoculated into a 96-well plate at 4×10^5/well, and the stimulant TLR4-L (final concentration: 10 μg/ml), TLR7-L (final concentration: 5 μg/ml) or TLR9-L (final concentration: 1 μM) was added. […] 5 ml scintillation fluid was added, and the values of radioactive counts per minute were read on a Beta counter (2450 Microplate Counter, PerkinElmer).
Suspensions of purified mouse B cells from each group were inoculated into a 96-well plate at 4×10^5/well, and the stimulant TLR4-L (final concentration: 10 μg/ml), TLR7-L (final concentration: 5 μg/ml) or TLR9-L (final concentration: 1 μM) was added. […] After the end of the culture, the cell culture supernatants were collected, and the level of IL-6 was measured by ELISA. […]

Experiment [3] relates to adjuvant-induced arthritis in rats. The experiment is described as follows: Adjuvant-induced arthritis in rats: arthritis scoring and foot swelling. To be noted: FIG. 7. It counts as in vivo, rat.

The structures appear in SMILES notation.

For `CC(C)(C)NCc1cc(Nc2ccnc3cc(Cl)ccc23)c2c(c1O)CCCC2.O=P(O)(O)O.O=P(O)(O)O` [Naphthoquine Phosphate, Naphthoquine phosphate], the “levels of collagen-specific antibodies in serum of arthritic mice” value in experiment [1] is listed as “reduce”. Further, in experiment [2], the “B cell activation, cytokine secretion and antibody production mediated by TLR signaling” value was “significantly inhibited”. Also, in experiment [3] (intragastric 25, 50, 100 mg/kg), the “clinical arthritis scores of the experimental rats” value is on record as “improved” and the “extent of foot swelling in rats” value is reported as “inhibited”. In experiment [3] (same dose (100 mg/kg)), the “therapeutic effect in arthritic rats compared with hydroxychloroquine sulfate” value was “superior to that of hydroxychloroquine sulfate at the same dose”.

Source of the values: US20250332154A1, “USE OF NAPHTHOQUINE PHOSPHATE IN PREPARATION OF A MEDICAMENT FOR TREATING AUTOIMMUNE DISEASES” (SHANGHAI PHARMACEUTICALS INDUSTRY CO., LTD, priority 2022, published 2025).
